Where two headings read alike, the source gives them in different places.
Assays:
DU-145 = test: NCI in vitro cytotoxicity, SRB assay; conditions: Homo sapiens
SNB-75 = test: NCI in vitro cytotoxicity, SRB assay; conditions: Homo sapiens
RPMI-8226 = test: NCI in vitro cytotoxicity, SRB assay; conditions: Homo sapiens
HCC-2998 = test: NCI in vitro cytotoxicity, SRB assay; conditions: Homo sapiens
Text: (§1) The results are expressed as percent of cell growth determined relative to that of untreated control cells (Table 2).

LOX IMVI = test: NCI in vitro cytotoxicity, SRB assay; conditions: Homo sapiens
UO-31 = test: NCI in vitro cytotoxicity, SRB assay; conditions: Homo sapiens
OVCAR-3 = test: NCI in vitro cytotoxicity, SRB assay; conditions: Homo sapiens
OVCAR-8 = test: NCI in vitro cytotoxicity, SRB assay; conditions: Homo sapiens
HL-60(TB) = test: NCI in vitro cytotoxicity, SRB assay; format: cell-based; conditions: Homo sapiens; Leukemia HL-60(TB)
[1] = tested on: forty nine human tumour cell lines; test: NCI in vitro cytotoxicity screen, SRB assay, 48 h continuous exposure
HOP-92 = test: NCI in vitro cytotoxicity, SRB assay; conditions: Homo sapiens
Text: as §1

NCI-H23 = test: NCI in vitro cytotoxicity, SRB assay; conditions: Homo sapiens
Text: as §1

UACC-257 = test: NCI in vitro cytotoxicity, SRB assay; conditions: Homo sapiens
U251 = test: NCI in vitro cytotoxicity, SRB assay; conditions: Homo sapiens, U-251
MOLT-4 = test: NCI in vitro cytotoxicity, SRB assay; conditions: Homo sapiens
HS 578T = test: NCI in vitro cytotoxicity, SRB assay; conditions: Homo sapiens
HCT-116 = test: NCI in vitro cytotoxicity, SRB assay; conditions: Homo sapiens
OVCAR-5 = test: NCI in vitro cytotoxicity, SRB assay; conditions: Homo sapiens
UACC-62 = test: NCI in vitro cytotoxicity, SRB assay; conditions: Homo sapiens
Melanoma cell lines = test: NCI in vitro cytotoxicity, panel average
SF-268 = test: NCI in vitro cytotoxicity, SRB assay; conditions: Homo sapiens
MDA-MB-231/ATCC = test: NCI in vitro cytotoxicity, SRB assay; conditions: Homo sapiens
MCF7 = test: NCI in vitro cytotoxicity, SRB assay; conditions: Homo sapiens
Breast cancer cell lines = test: NCI in vitro cytotoxicity, panel average
M14 = test: NCI in vitro cytotoxicity, SRB assay; conditions: Homo sapiens
SNB-19 = test: NCI in vitro cytotoxicity, SRB assay; conditions: Homo sapiens
SN12C = test: NCI in vitro cytotoxicity, SRB assay; conditions: Homo sapiens
EKVX = test: NCI in vitro cytotoxicity, SRB assay; conditions: Homo sapiens
SK-MEL-28 = test: NCI in vitro cytotoxicity, SRB assay; conditions: Homo sapiens
HCT-15 = test: NCI in vitro cytotoxicity, SRB assay; conditions: Homo sapiens
SK-MEL-5 = test: NCI in vitro cytotoxicity, SRB assay; conditions: Homo sapiens
T-47D = test: NCI in vitro cytotoxicity, SRB assay; conditions: Homo sapiens, T47D
Colon cancer cell lines = test: NCI in vitro cytotoxicity, panel average
[2] = tested on: Ovarian cancer cell lines; test: NCI in vitro cytotoxicity, panel average
Renal cancer cell lines = test: NCI in vitro cytotoxicity, panel average
MDA-MB-468 = test: NCI in vitro cytotoxicity, SRB assay; conditions: Homo sapiens
OVCAR-4 = test: NCI in vitro cytotoxicity, SRB assay; conditions: Homo sapiens
CCRF-CEM = test: NCI in vitro cytotoxicity, SRB assay; conditions: Homo sapiens
A498 = test: NCI in vitro cytotoxicity, SRB assay; conditions: Homo sapiens
SF-295 = test: NCI in vitro cytotoxicity, SRB assay; conditions: Homo sapiens
K-562 = test: NCI in vitro cytotoxicity, SRB assay; conditions: Homo sapiens, K562
CNS cancer cell lines = test: NCI in vitro cytotoxicity, panel average; conditions: average of the panel's cell lines
CAKI-1 = test: NCI in vitro cytotoxicity, SRB assay; conditions: Homo sapiens
SF-539 = test: NCI in vitro cytotoxicity, SRB assay; conditions: Homo sapiens
SK-OV-3 = test: NCI in vitro cytotoxicity, SRB assay; conditions: Homo sapiens
SW-620 = test: NCI in vitro cytotoxicity, SRB assay; conditions: Homo sapiens
ACHN = test: NCI in vitro cytotoxicity, SRB assay; conditions: Homo sapiens
NCI/ADRRES = test: NCI in vitro cytotoxicity, SRB assay; conditions: Homo sapiens, NCI/ADR-RES
NCI-H460 = test: NCI in vitro cytotoxicity, SRB assay; conditions: Homo sapiens
Text: as §1

NCI-H522 = test: NCI in vitro cytotoxicity, SRB assay; conditions: Homo sapiens
Text: as §1

Leukemia cell lines = test: NCI in vitro cytotoxicity, panel average
[3] = tested on: Non-small-cell lung cancer cell lines; test: NCI in vitro cytotoxicity, panel average
IGROV1 = test: NCI in vitro cytotoxicity, SRB assay; conditions: Homo sapiens, IGROV-1
A549/ATCC = test: NCI in vitro cytotoxicity, SRB assay; conditions: Homo sapiens
786-0 = test: NCI in vitro cytotoxicity, SRB assay; conditions: Homo sapiens
[4] = tested on: Prostate cancer cell lines; test: NCI in vitro cytotoxicity, panel average
MDA-MB-435 = test: NCI in vitro cytotoxicity, SRB assay; conditions: Homo sapiens
PC-3 = test: NCI in vitro cytotoxicity, SRB assay; conditions: Homo sapiens
KM12 = test: NCI in vitro cytotoxicity, SRB assay; conditions: Homo sapiens
[5] = Homo sapiens, read-out: Log10 LC50 (converted)

COc1cc(C2NC(=O)c3ccccc3N2)ccc1OCCCCCOc1c(OC)cc(C2=NOC(c3cc(OC)c(OC)c(OC)c3)C2)cc1OC (centres unmarked) [Compound 7d, 2-[4-(5-{2,6-Dimethoxy-4-[5-(3,4,5-trimethoxy-phenyl)-4,5-dihydro-isoxazol-3-yl]-phenoxy}-pentyloxy)-3-methoxy-phenyl]-2,3-dihydro-1H-quinazolin-4-one]
GI50 (DU-145): 22.4 µM
GI50 (SNB-75): 34.2 µM
GI50 (RPMI-8226): 0.06 µM
GI50 (HCC-2998): 0.06 µM
GI50 (LOX IMVI): 19.5 µM
GI50 (UO-31): 21.4 µM
GI50 (OVCAR-3): 12.4 µM
GI50 (OVCAR-8): 25.7 µM
GI50 (HL-60(TB)): 12.2 µM
GI50 ([1]; Homo sapiens, read-out: GI50 value): < 40 µM
GI50 ([1]; Homo sapiens, read-out: Log10 GI50 mean graph midpoint (MG_MID) (converted)): 5.25 µM
CC50 ([1]; Homo sapiens, read-out: Log10 LC50 mean graph midpoint (MG_MID) (converted)): 95.5 µM
in vitro cytotoxicity (in words) ([1]; cancer cell lines): significant cytotoxicity
Log10 TGI mean graph midpoint (MG_MID) ([1]; human tumour cell lines): −4.18
GI50 (HOP-92): 15.8 µM
GI50 (NCI-H23): 0.38 µM
GI50 (UACC-257): 0.29 µM
GI50 (U251): 25.2 µM
GI50 (MOLT-4): 0.68 µM
GI50 (HS 578T): 15 µM
GI50 (HCT-116): 0.26 µM
GI50 (OVCAR-5): 31.7 µM
GI50 (UACC-62): 0.99 µM
CC50 (Melanoma cell lines; [5]): ≥ 100 µM
Log10 GI50 (Melanoma cell lines; Melanoma, average of the panel's cell lines): −5.69 mol/L
GI50 (SF-268): 20.2 µM
GI50 (MDA-MB-231/ATCC): 14.7 µM
GI50 (MCF7): 0.45 µM
Log10 GI50 (Breast cancer cell lines; Breast, average of the panel's cell lines): −5.82 mol/L
CC50 (Breast cancer cell lines; [5]): ≥ 100 µM
GI50 (M14): 19.8 µM
GI50 (SNB-19): 16.6 µM
GI50 (SN12C): 39.1 µM
GI50 (EKVX): 0.36 µM
GI50 (SK-MEL-28): 3.24 µM
GI50 (HCT-15): 15.9 µM
GI50 (SK-MEL-5): 0.18 µM
GI50 (T-47D): 0.3 µM
Log10 GI50 (Colon cancer cell lines; Colon, average of the panel's cell lines): −5.17 mol/L
CC50 (Colon cancer cell lines; [5]): ≥ 100 µM
CC50 [2, 5]: ≥ 100 µM
Log10 GI50 ([2]; Ovarian, average of the panel's cell lines): −5.20 mol/L
CC50 (Renal cancer cell lines; [5]): ≥ 100 µM
Log10 GI50 (Renal cancer cell lines; Renal, average of the panel's cell lines): −4.72 mol/L
GI50 (MDA-MB-468): 0.08 µM
GI50 (OVCAR-4): 0.49 µM
GI50 (CCRF-CEM): 0.62 µM
GI50 (A498): 19.3 µM
GI50 (SF-295): 16.4 µM
GI50 (K-562): 0.37 µM
Log10 GI50 (CNS cancer cell lines): −4.66 mol/L
GI50 (CAKI-1): 18 µM
GI50 (SF-539): 21.2 µM
GI50 (SK-OV-3): 38.5 µM
GI50 (SW-620): 21 µM
GI50 (ACHN): 0.95 µM
GI50 (NCI/ADRRES): 10.6 µM
GI50 (NCI-H460): 15.1 µM
GI50 (NCI-H522): 27.4 µM
CC50 (Leukemia cell lines; [5]): 70.8 µM
Log10 GI50 (Leukemia cell lines; Leukemia, average of the panel's cell lines): −6.17 mol/L
CC50 [3, 5]: ≥ 100 µM
Log10 GI50 ([3]; Non-small-cell lung, average of the panel's cell lines): −4.97 mol/L
GI50 (IGROV1): 0.32 µM
GI50 (A549/ATCC): 15.7 µM
GI50 (786-0): 31.8 µM
CC50 [4, 5]: ≥ 100 µM
Log10 GI50 ([4]; Prostate, average of the panel's cell lines): −5.39 mol/L
GI50 (MDA-MB-435): 0.6 µM
GI50 (PC-3): 0.74 µM
GI50 (KM12): 10.4 µM

Reference: patent US8883809B2, “Isoxazole/isoxazoline/combretastatin linked dihydroquinazolinone hybrids as potential anticancer agents and process for the preparation thereof” (Council of Scientific & Industrial Research, priority 2008, dated 2014)
